Results published in patent US20250222124A1, “PROTEIN CONJUGATES WITH MULTIPLE PAYLOADS AND METHODS FOR MAKING THE SAME” (GLYCO-THERAPY BIOTECHNOLOGY CO., LTD., priority 2022, published 2025).

Tested on: HpFT-2 (Helicobacter pylori α1,3 fucosyltrasferase)
Experiment: Conversion efficiency of α1,3 fucosyltrasferase towards GDP-fucose derivatives with different jointer on the antibodies (LC-MS)
Assay type: biochemical
Conditions: substrate 1 mM, HpFT-2 0.5 mg/mL
Method: Trastuzumab-(GalNAzβ1,4)GlcNAc (2 mg/mL) was incubated with GDP-FAzP4Biotin (1 mM) or GDP-FAmP4Biotin (1 mM) and HpFT-2 (0.5 mg/mL) in 50 mM Tris-HCl buffer (pH 7.5) with 5 mM MgCl2 at 30° C. for 2 hours. […] The reaction mixtures were then quenched by adding LacNAc (final concentration 10 mM) and purified with protein A resin and analyzed by LC-MS respectively.

[1] = antibody Trastuzumab-(Fucα1,6)(Galβ1,4)GlcNAc 2 mg/mL, reaction time 10 min, average MAR/2*100%
[2] = antibody Trastuzumab-(GalNAzβ1,4)GlcNAc 2 mg/mL, reaction time 2 h, average MAR/2*100%
[3] = antibody Trastuzumab-(Galβ1,4)GlcNAc 2 mg/mL, reaction time 10 min, average MAR/2*100%

Compound | % of conversion [1] [%] | % of conversion [2] [%] | % of conversion [3] [%] | % of conversion (antibody Trastuzumab-G2F 2 mg/mL, reaction time 2 h, average MAR/4*100%) [%]
Nc1nc2c(ncn2[C@@H]2O[C@H](COP(=O)(O)OP(=O)(O)O[C@H]3OC(Cn4cc(COCCOCCOCCOCCNC(=O)CCCC[C@@H]5SC[C@@H]6NC(=O)N[C@@H]65)nn4)[C@@H](O)[C@H](O)C3O)C(O)[C@@H]2O)c(=O)[nH]1 (stereo partly shown) [GDP-FAzP4Biotin] | 30 ± 4.6 | 13 ± 4.7 | 60 ± 0.6 | 9 ± 1.2
Nc1nc2c(ncn2[C@@H]2O[C@H](COP(=O)(O)OP(=O)(O)O[C@H]3OC(CNC(=O)CCOCCOCCOCCOCCNC(=O)CCCC[C@@H]4SC[C@@H]5NC(=O)N[C@@H]54)[C@@H](O)C(O)C3O)C(O)C2O)c(=O)[nH]1 (stereo partly shown) [GDP-FAmP4Biotin] | 42 ± 5.3 | 77 ± 5.0 | 83 ± 1.2 | 
